Assay results: the supplement of paper PMC8633005

Columns and labels:
Assay in all cases: drug sensitivity score (DSS) (DSS (unitless, 0-50 scale)); higher = more sensitive (stronger viability inhibition); extreme values may be limits of the assay
Settings in all cases: 72 h; culture: 2D
SK-MEL-28 = tested on: SK-MEL-28
Method in brief: (§1)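 Viability was measured by CellTiter-Glo luminescence after 72 h at 37 °C in 384-well plates holding a 527-compound oncology library, with patient-derived melanoma cultures (1000–1500 cells per well) and melanoma cell lines grown in 2D. Every compound was tested at five concentrations spanning a 10,000-fold range. The drug sensitivity score, a modified area under the curve, came from dose-response curves fitted with in-house Breeze software.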

WM852 = tested on: WM852
Method in brief: as §1

Bowes = tested on: Bowes
Method in brief: as §1

WM165 = tested on: WM165
Method in brief: as §1

FM-MEL-6 = tested on: FM-MEL-6
Method in brief: as §1

FM-MEL-3 = tested on: FM-MEL-3
Method in brief: as §1

FM-MEL-2 = tested on: FM-MEL-2
Method in brief: as §1

SK-MEL-2 = tested on: SK-MEL-2
Method in brief: as §1

SMILES | drug sensitivity score (SK-MEL-28) | drug sensitivity score (WM852) | drug sensitivity score (Bowes) | drug sensitivity score (WM165) | drug sensitivity score (FM-MEL-6) | drug sensitivity score (FM-MEL-3) | drug sensitivity score (FM-MEL-2) | drug sensitivity score (SK-MEL-2)
COc1cc2nccc(Oc3ccc(NC(=O)Nc4cc(C)on4)c(Cl)c3)c2cc1OC [Tivozanib] | 3.1 | 1.1 | 2.8 | 3.1 | 0.5 | 4.8 | 3.4 | 0
C[C@H](Nc1ncnc2[nH]cnc12)c1cc2ccc(F)cc2nc1-c1ccccn1 [AMG319] | 0 | 0 | 0 | 0 | 0.6 | 0 | 1.7 | 0
N#Cc1ccc(COC[C@H]2O[C@@H](n3c(NCc4ccc(Cl)c(Cl)c4)nc4c(N)ncnc43)[C@H](O)[C@@H]2O)cc1 | 5.5 | 0 | 2.7 | 5.1 | 1 | 6.8 | 4.2 | 0
NC(=S)N/N=C/c1ncccc1N [Triapine] | 2.5 | 0 | 1.9 | 5.3 | 3.2 | 0.6 | 0.4 | 0
C[C@H]1CNCCCN1S(=O)(=O)c1cccc2cncc(F)c12 [Ripasudil] | 0 | 0 | 0 | 0.1 | 0 | 0 | 0 | 0
COC(=O)c1ccc([C@H]2c3[nH]c4ccccc4c3C[C@H](C(=O)OC)N2C(=O)CCl)cc1 [RSL3] | 0 | 0 | 0 | 0 | 0 | 0 | 0 | 0
COc1cc(C)[nH]c(=O)c1CNC(=O)c1c(C)n([C@H](C)C2CCOCC2)c2ccccc12 [CPI-360] | 0 | 0 | 0 | 0 | 0.6 | 0 | 0.2 | 0
CN1CCN(C(=O)c2ccc3cc(CCNc4ncnc5ccc(C#N)cc45)ccc3c2)CC1 [Senexin B] | 0 | 0.9 | 0 | 0 | 0.1 | 1.2 | 1 | 0
CN(C)C1CCN(C(=O)c2ccc(NC(=O)Nc3ccc(-c4nc(N5CCOCC5)nc(N5CCOCC5)n4)cc3)cc2)CC1 [Gedatolisib] | 9.5 | 7.5 | 12.6 | 14.8 | 9.4 | 9.8 | 6.1 | 10.6
CO[C@@]12[C@H](COC(N)=O)C3=C(C(=O)C(C)=C(N)C3=O)N1C[C@@H]1N[C@@H]12 [Mitomycin C] | 1.9 | 0 | 3.1 | 6.2 | 0.8 | 3.5 | 0.2 | 2
C=CCc1cccc(/C=N/NC(=O)CN2CCN(Cc3ccccc3)CC2)c1O [PAC-1] | 1.5 | 2.8 | 1.6 | 3.4 | 0 | 0 | 0 | 0
CC(C)n1cnc2c(NCCc3ccc(O)cc3)nc(-c3csc4ccccc34)nc21 [StemRegenin 1] | 0 | 1.3 | 1.1 | 2.5 | 3.6 | 3.4 | 1.5 | 0
C[C@]1(O)C[C@@H](c2nc(-c3ccc4ccc(-c5ccccc5)nc4c3)c3c(N)nccn32)C1 [Linsitinib] | 0 | 1 | 0 | 1.3 | 0.9 | 4.8 | 3.6 | 0
CCc1nc(C(N)=O)c(Nc2ccc(N3CCC(N4CCN(C)CC4)CC3)c(OC)c2)nc1NC1CCOCC1 [Gilteritinib] | 2.7 | 1.8 | 0 | 2.8 | 1.9 | 5 | 3.7 | 1.7
CN1CCN(C2CCC(n3cc(-c4ccc(Oc5ccccc5)cc4)c4c(N)ncnc43)CC2)CC1 (configuration not stated) | 8 | 9.2 | 10.1 | 9.4 | 7.2 | 7.7 | 6.6 | 5
CC(=O)O[C@H]1C(=O)[C@@]2(C)[C@H]([C@H](OC(=O)c3ccccc3)[C@]3(O)C[C@H](OC(=O)[C@H](O)[C@@H](NC(=O)c4ccccc4)c4ccccc4)C(C)=C1C3(C)C)[C@]1(OC(C)=O)CO[C@@H]1C[C@@H]2O [Paclitaxel] | 11.5 | 20.5 | 23.3 | 22.2 | 13.7 | 11.9 | 5.3 | 16.5
COc1cc(Br)c(Nc2nc(-c3c(C)nc4ncccn34)cs2)c(Br)c1 [PTC-209] | 4.6 | 7.6 | 13.7 | 12.4 | 5 | 11.2 | 5.1 | 4.2

SMILES | drug sensitivity score (SK-MEL-28) | drug sensitivity score (WM852) | drug sensitivity score (Bowes) | drug sensitivity score (WM165) | drug sensitivity score (FM-MEL-6) | drug sensitivity score (FM-MEL-3) | drug sensitivity score (FM-MEL-2) | drug sensitivity score (SK-MEL-2)
CCC1=C[C@@H]2CN(C1)Cc1c([nH]c3ccccc13)[C@@](C(=O)OC)(c1cc3c(cc1OC)N(C)[C@H]1[C@@](O)(C(=O)OC)[C@H](OC(C)=O)[C@]4(CC)C=CCN5CC[C@]31[C@@H]54)C2 [Vinorelbine] | 11 | 23.1 | 31.6 | 28.8 | 23.3 | 12.5 | 7.7 | 25.6
COc1cccc2c1c(O)c(C(=O)N(C)c1ccc(C(F)(F)F)cc1)c(=O)n2C [Tasquinimod] | 0 | 0 | 0 | 0 | 0.4 | 0.2 | 0.9 | 0
CC1(C)C(C(=O)Nc2ccc(S(=O)(=O)c3ccc(NC(=O)C4C(C)(C)C4(C)C)cc3)cc2)C1(C)C [BRD7116] | 0 | 0 | 0.1 | 0 | 0 | 0.6 | 2.1 | 0
CCN(CC)CCNC(=O)c1c(C)[nH]c(/C=C2\C(=O)Nc3ccc(F)cc32)c1C [Sunitinib] | 0 | 0 | 0 | 0.8 | 0 | 0 | 0 | 0
CC1(C)OCCn2c1nc1c(N3CCOCC3)nc(-c3cnc(N)nc3)nc12 [GDC-0084] | 7.7 | 7.7 | 9.4 | 8.4 | 7.8 | 8.4 | 9.6 | 8.1
CCn1c(-c2nonc2N)nc2c(C#CC(C)(C)O)ncc(OC[C@H]3CCCNC3)c21 | 0 | 0 | 1 | 3.4 | 0 | 1.8 | 1 | 0
O=C(c1cccc(Cl)c1F)N1CCN(Cc2cccc(Nc3nccs3)n2)CC1 [MK-8745] | 0.4 | 7.5 | 5.7 | 5.7 | 0 | 0.1 | 0 | 0
CC[C@@](C)(Nc1ccnc(-c2c[nH]c3ncccc23)n1)C(=O)NCC(F)(F)F [Decernotinib] | 0.3 | 0 | 0 | 0 | 0 | 0 | 0.2 | 0
CCOC(=O)C1=CCCC[C@H]1S(=O)(=O)Nc1ccc(F)cc1Cl [Resatorvid] | 0 | 0 | 0 | 0 | 0 | 0 | 0 | 0
COc1cc2ncnc(Nc3ccc(F)c(Cl)c3)c2cc1OCCCN1CCOCC1 [Gefitinib] | 2.9 | 3 | 2.9 | 4.6 | 2.7 | 2.4 | 2.6 | 0
COc1ccc(COc2cc3oc(=O)c4cc(C(C)O)ccc4c3cc2OC)cc1 (configuration not stated) [Palomid-529] | 0 | 0 | 0 | 0 | 0.1 | 0.7 | 0.1 | 0
Nc1nc(N)c2nc(-c3cccc(O)c3)c(-c3cccc(O)c3)nc2n1 [TG100-115] | 0 | 0 | 2.9 | 0 | 1 | 0 | 1.8 | 0
COc1cccc2c1C(=O)c1c(O)c3c(c(O)c1C2=O)C[C@@](O)(C(C)=O)C[C@@H]3O[C@H]1C[C@H](N)[C@H](O)[C@H](C)O1 [Daunorubicin] | 7.2 | 4.6 | 4.5 | 13.4 | 7.4 | 8.3 | 6.8 | 4.7
Cc1ccc(C(=O)N(CCCN)[C@@H](c2oc3cc(Cl)ccc3c(=O)c2Cc2ccccc2)C(C)C)cc1 | 0.9 | 4.5 | 7.7 | 4.3 | 5.4 | 2.1 | 3.9 | 10
O=C(O)C(=O)O.[NH-][C@@H]1CCCC[C@H]1[NH-].[Pt+2] [Oxaliplatin] | 7.3 | 3.5 | 5.8 | 14.5 | 11.7 | 3.2 | 4.7 | 4.3
CC[C@H](CC#N)OC(=O)N[C@@H](C)c1cccc(NC(=O)Nc2ccc(-c3cnco3)c(OC)c2)c1 [AVN944] | 13.3 | 8.4 | 10.4 | 18.9 | 12.8 | 10.5 | 8.1 | 4.8
CNC(=O)c1cccc2cc(Oc3ccnc4cc(OCC5(N)CC5)c(OC)cc34)ccc12 [Lucitanib] | 0 | 2.2 | 5.4 | 1.6 | 1.3 | 0 | 0.3 | 0
